The values that follow come from patent publication US9066948B2, “Oxadiazolo[3,2-a]pyrimidines and thiadiazolo[3,2-a]pyrimidines” (THE UNITED STATES OF AMERICA AS REPRESENTED BY THE …, priority 2010, dated 2015).

“And” between values parts separate entries of the source, which are not always exact repeats. Equal entries are not always repeated.

One test has as its system rat platelets. The test can be described thus: ADP-induced platelet aggregation, rat PRP (Example 45). Type of test: cell-based. The conditions noted are these: 1 μM. On the procedure:
Blood may be drawn via cardiac puncture from anesthetized Sprague Dawley rats (Taconic, Hudson, N.Y.), WT C57B1/6 mice (Jackson Laboratories, Bar Harbor, Me.), and mice expressing hαIIb/mβ3 and diluted 1:1 with a mixture of 4 parts 0.165 […], pH 7.4 containing 2 mM CaCl2 and 1 mM MgCl2. Blood from consenting human volunteers is obtained from a peripheral vein using a 19 gauge needle and anticoagulated with 1:10 vol 3.8% sodium citrate. Platelet-rich plasma (PRP) may be isolated by centrifugation at 22° C. at 350 g for 10 minutes (rats); 250 g for 2.5 minutes (mice); or 650 g for 4 minutes (human). Mouse PRP samples may be adjusted to 400,000 platelets/μl with the buffer used for dilution and human PRP may be adjusted to 300,000 platelets/μl with platelet-poor plasma. […] Platelet aggregation may be induced by adding to PRP adenosine diphosphate (ADP) at 30 μM (rats and WT mice), 20 or 30 μM (hαIIb/mβ3 mice), or 5 μM (humans), and light transmission may be measured over time in an aggregometer (Kowa AG-10E, Tokyo, Japan) with stirring. Percent inhibition may be calculated by comparing the initial slope of untreated samples to the samples treated with the Compounds of the Invention.

The subject of a further test is hαIIb/mβ3 platelets. Nature of the test: ADP-induced aggregation of platelets from mice expressing hαIIb/mβ3 (Example 45). It is filed as cell-based, mouse. How it is done: Blood may be drawn via cardiac puncture from anesthetized Sprague Dawley rats (Taconic, Hudson, N.Y.), WT C57B1/6 mice (Jackson Laboratories, Bar Harbor, Me.), and mice expressing hαIIb/mβ3 and diluted 1:1 with a mixture of 4 parts 0.165 […], pH 7.4 containing 2 mM CaCl2 and 1 mM MgCl2. Blood from consenting human volunteers is obtained from a peripheral vein using a 19 gauge needle and anticoagulated with 1:10 vol 3.8% sodium citrate. Platelet-rich plasma (PRP) may be isolated by centrifugation at 22° C. at 350 g for 10 minutes (rats); 250 g for 2.5 minutes (mice); or 650 g for 4 minutes (human). Mouse PRP samples may be adjusted to 400,000 platelets/μl with the buffer used for dilution and human PRP may be adjusted to 300,000 platelets/μl with platelet-poor plasma. Samples of PRP may be either untreated or incubated for 5 minutes at 37° C. with the Compounds of the Invention (100 μM). Platelet aggregation may be induced by adding to PRP adenosine diphosphate (ADP) at 30 μM (rats and WT mice), 20 or 30 μM (hαIIb/mβ3 mice), or 5 μM (humans), and light transmission may be measured over time in an aggregometer (Kowa AG-10E, Tokyo, Japan) with stirring. Percent inhibition may be calculated by comparing the initial slope of untreated samples to the samples treated with the Compounds of the Invention.

Test [1] relates to washed platelets. The test can be described thus: Platelet adhesion/aggregation to collagen. Type of test: cell-based, human. How it is done: Washed platelets are prepared as per the primary screening assay, suspended in HBMT containing 1 mM MgCl2 (platelet adhesion to collagen) or 2 mM CaCl2/1 mM MgCl2 (platelet adhesion to fibrinogen) and adjusted to a count of 250×10^9/L. HEK293 cells stably expressing normal human αVβ3 or normal human αIIbβ3 are suspended in HBMT containing either 1 mM MgCl2 (HEK293 cells expressing αVβ3 for adhesion to vitronectin) or 2 mM CaCl2/1 mM MgCl2 (HEK293 cells expressing αIIbβ3 for adhesion to fibrinogen); the cell counts are adjusted to 10^6/mL. Polystyrene 96-well microtiter plates (Nunc) are coated with either fibrinogen (50 μg/mL), vitronectin (5 μg/mL), or collagen (33 μg/mL, rat tail type 1; Becton Dickinson) for 1 hour, and blocked with HBMT for at least 1 hour. Platelets and cells are treated with the compound of Example 27 of the current invention or 2-ethyl-7-(piperazin-1-yl)-5H-[1,3,4]thiadiazolo-[3,2-a]pyrimidin-5-one of U.S. Ser. No. 12/514,286 in the presence or absence of anti-α2β1 mAb 6F1, anti-αIIbβ3 mAb 10E5, anti-αIIbβ3 mAb 10E5+αVβ3 mAb 7E3, αVβ3-specific mAb LM609, or anti-αVβ3+αIIbβ3 mAb 7E3, for 15 minutes at 37° C. before being added to the microtiter wells. After adhering for 1 hour at either 22° C. (platelets) or 37° C. (cells), nonadherent platelets or cells are removed by washing 3 times with HBMT containing the same ion composition as the buffer used for adhesion. […] In other experiments, 8-chambered glass coverslips (Nunc) are coated with collagen (33 μg/mL) for 1 hour at 22° C. Washed platelets are allowed to adhere for 1 hour at 22° C. and the coverslips are stained with the Alexa-488-conjugated β3-specific mAb 7H2. Adherent platelets are imaged using a Zeiss LSM-510 confocal system with Axiovert 200 microscope (Carl Zeiss, Heidelberg, Germany) using a Plan-Apochromat 100/1.4 NA oil DIC objective.

The next test has as its target T1, αIIbβ3 (Homo sapiens, UniProt P05106+P08514).
T1 construct: Washed platelets are prepared in HBMT containing 2 mM CaCl2/1 mM MgCl2; endogenous in cells; host or cells: washed platelets
Nature of the test: Induction of ligand-induced binding site (LIBS) epitopes, flow cytometry of washed platelets. It is filed as cell-based. The conditions noted are these: eptifibatide 10 μM = 100%, Example 27 at 100 μM. How it is done:
Washed platelets are prepared in HBMT containing 2 mM CaCl2/1 mM MgCl2. […] Fluorescently labeled monoclonal antibodies (PMI-1, LIBS-1, AP5, or 10E5; Alexa-488 conjugated; Invitrogen) are then added (20 μL, final concentration: 5 μg/mL) and incubated for 30 minutes at 22° C. in the dark, after which samples are diluted 1:10 in HBMT with CaCl2/MgCl2 for analysis by flow cytometry (FACSCalibur; Becton Dickinson, Franklin Lakes, N.J.). Antibody binding is reported as the geometric mean fluorescence intensity; nonspecific binding is determined by adding a 50-fold excess of unlabeled antibody before adding the labeled antibody. The net normalized fluorescence intensity in the presence of eptifibatide (10 μM, 30 min incubation at 22° C.) is assigned the value of 100%

Test [2] relates to washed platelets. Nature of the test: Effect of Mg2+ concentration on platelet adhesion to fibrinogen. As to conditions: for IC50: Homo sapiens, Platelet, mean±SD, three experiments. Type of test: cell-based, human. How it is done:
Washed platelets in buffers containing 1 mM Ca^2+ plus 1 mM, 20 mM, or 50 mM Mg^2+ are added to wells pre-coated with fibrinogen (50 μg/ml) for 60 min at 22° C. After washing, adherent platelets are detected by acid phosphatase activity. Results are expressed as mean±SD (n=3 for the compound of Example 27 of the current invention and 2-ethyl-7-(piperazin-1-yl)-5H-[1,3,4]thiadiazolo-[3,2-a]pyrimidin-5-one (a compound disclosed and claimed in U.S. Ser. No. 12/514,286); n=2 for tirofiban).

T1 sequence (P08514 32-887 limits assumed): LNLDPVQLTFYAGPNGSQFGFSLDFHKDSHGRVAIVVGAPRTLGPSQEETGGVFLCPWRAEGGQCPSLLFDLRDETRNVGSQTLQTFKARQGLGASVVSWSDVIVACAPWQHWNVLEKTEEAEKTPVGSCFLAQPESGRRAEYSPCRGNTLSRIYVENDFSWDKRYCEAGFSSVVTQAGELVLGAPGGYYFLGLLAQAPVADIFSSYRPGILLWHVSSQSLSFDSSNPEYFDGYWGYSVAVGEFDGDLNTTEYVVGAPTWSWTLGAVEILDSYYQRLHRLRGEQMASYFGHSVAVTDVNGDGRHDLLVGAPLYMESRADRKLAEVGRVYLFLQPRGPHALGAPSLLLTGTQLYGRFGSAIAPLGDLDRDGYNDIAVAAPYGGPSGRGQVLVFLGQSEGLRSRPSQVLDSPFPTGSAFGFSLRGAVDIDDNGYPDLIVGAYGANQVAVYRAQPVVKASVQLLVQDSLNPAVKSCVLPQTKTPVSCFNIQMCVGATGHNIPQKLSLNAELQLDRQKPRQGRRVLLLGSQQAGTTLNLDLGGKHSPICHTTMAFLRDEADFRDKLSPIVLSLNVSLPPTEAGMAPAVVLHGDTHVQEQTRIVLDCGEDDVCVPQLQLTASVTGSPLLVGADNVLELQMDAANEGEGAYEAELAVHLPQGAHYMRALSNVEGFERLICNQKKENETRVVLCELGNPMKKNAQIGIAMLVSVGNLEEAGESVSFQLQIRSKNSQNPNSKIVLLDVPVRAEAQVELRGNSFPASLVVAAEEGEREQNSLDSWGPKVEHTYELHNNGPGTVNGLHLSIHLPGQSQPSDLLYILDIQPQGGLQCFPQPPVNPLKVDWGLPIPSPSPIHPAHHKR
T1 sequence (P08514 891-1039 partner limits assumed): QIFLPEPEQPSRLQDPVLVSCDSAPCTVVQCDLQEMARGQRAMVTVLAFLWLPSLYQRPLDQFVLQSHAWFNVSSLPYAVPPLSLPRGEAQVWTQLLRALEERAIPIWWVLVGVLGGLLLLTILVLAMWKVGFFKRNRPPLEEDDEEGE
T1 sequence (P05106 27-788): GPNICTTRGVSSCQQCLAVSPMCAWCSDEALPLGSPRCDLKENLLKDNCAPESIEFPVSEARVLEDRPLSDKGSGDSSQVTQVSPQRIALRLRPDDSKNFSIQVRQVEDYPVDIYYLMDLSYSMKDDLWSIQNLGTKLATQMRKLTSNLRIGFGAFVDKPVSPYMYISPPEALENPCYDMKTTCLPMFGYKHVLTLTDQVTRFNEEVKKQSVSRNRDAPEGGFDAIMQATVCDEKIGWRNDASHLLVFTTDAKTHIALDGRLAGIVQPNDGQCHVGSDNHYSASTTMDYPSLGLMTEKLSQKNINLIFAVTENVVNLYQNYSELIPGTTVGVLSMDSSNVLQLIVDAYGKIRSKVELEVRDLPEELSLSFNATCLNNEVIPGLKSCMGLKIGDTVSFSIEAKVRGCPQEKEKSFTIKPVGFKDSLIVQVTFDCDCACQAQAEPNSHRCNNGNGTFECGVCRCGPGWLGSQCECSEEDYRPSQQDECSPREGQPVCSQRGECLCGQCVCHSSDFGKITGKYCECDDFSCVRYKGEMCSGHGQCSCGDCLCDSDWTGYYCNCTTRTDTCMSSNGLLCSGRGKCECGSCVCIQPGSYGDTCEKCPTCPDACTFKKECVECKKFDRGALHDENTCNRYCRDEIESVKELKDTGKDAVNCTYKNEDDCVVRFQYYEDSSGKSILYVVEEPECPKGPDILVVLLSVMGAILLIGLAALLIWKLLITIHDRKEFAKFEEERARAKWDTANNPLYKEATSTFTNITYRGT

Regarding `NCC(=O)Nc1cccc(-c2nn3c(=O)cc(N4CCNCC4)nc3s2)c1` [Example 27, 2-amino-N-(3-(5-oxo-7-(piperazin-1-yl)-5H-[1,3,4]thiadiazolo[3,2-a]pyrimidin-2-yl)phenyl)acetamide], in the test with rat platelets, the “inhibition of rat platelet aggregation induced by ADP” value is listed as “does not inhibit either mouse or rat platelet aggregation”. Besides, in the test with hαIIb/mβ3 platelets, the “inhibition of aggregation of platelets from a mouse expressing hαIIb/mβ3” value is “essentially completely inhibits the aggregation”. The “inhibition of platelet adhesion/aggregation to collagen” value in the test on washed platelets [1] (1-100 μM) is recorded as approximately 30%. The “further inhibition of adhesion/aggregation to collagen when combined with anti-αIIbβ3 antibody 10E5” value in the test on washed platelets [1] (combination with mAb 10E5) was “does not further inhibit adhesion/aggregation”. Further, the “platelet adhesion to collagen, microscopic analysis” value in the test with washed platelets [1] (confocal microscopy of adherent platelets) is reported as “does not decrease platelet adhesion to collagen”. At αIIbβ3, the “AP5 binding, % of the amount in the presence of eptifibatide” value was 18±5% and 18%; the “LIBS1 binding after 30 min, % of the amount in the presence of eptifibatide” value was 21±3%; the “PMI-1 binding, % of the amount bound by platelets treated with eptifibatide” value was found to be 82±13%. Besides, in the test with washed platelets [2] (1 to 50 mM Mg2+), the “decrease in affinity going from 1 to 50 mM Mg2+” value was approximately 80% and the “increase in IC50 going from 1 to 50 mM Mg2+” value is listed as approximately 4.5 fold. Further, the midpoint of inhibition with washed platelets [2] (1 mM Mg2+), the IC50, lay at 290 ± 100 nM. The IC50 with washed platelets [2] (20 mM Mg2+) amounted to 910 ± 210 nM. In the test with washed platelets [2] (50 mM Mg2+), this compound yielded an IC50 of 1300 ± 350 nM.
